Assays:
[1] = target: T1, Broad substrate specificity ATP-binding cassette transporter ABCG2 (Mus musculus, UniProt Q7TMS5); assay: TP_TRANSPORTER: drug resistance in BCRP-expressing MEF3.8 cells; assay type: functional, cell-based
T1 sequence (Q7TMS5 whole entry): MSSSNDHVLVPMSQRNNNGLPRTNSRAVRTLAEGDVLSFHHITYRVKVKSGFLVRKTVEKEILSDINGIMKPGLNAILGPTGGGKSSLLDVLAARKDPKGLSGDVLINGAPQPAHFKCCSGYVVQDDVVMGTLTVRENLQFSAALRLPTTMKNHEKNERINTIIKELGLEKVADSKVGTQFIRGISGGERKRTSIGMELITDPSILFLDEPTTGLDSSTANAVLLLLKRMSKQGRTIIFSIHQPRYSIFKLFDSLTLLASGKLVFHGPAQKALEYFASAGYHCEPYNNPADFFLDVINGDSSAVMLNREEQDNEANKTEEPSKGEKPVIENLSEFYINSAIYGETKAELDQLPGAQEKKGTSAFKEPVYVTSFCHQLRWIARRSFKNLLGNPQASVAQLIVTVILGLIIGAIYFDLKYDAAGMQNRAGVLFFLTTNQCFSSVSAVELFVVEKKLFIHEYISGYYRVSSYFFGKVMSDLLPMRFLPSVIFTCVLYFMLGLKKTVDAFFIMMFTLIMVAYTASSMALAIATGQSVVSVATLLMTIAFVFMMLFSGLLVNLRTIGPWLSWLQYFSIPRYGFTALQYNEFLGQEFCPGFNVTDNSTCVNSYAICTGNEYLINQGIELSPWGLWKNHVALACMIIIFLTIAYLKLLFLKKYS

[2] = target: T1, Broad substrate specificity ATP-binding cassette transporter ABCG2; assay: TP_TRANSPORTER: transepithelial transport (basal to apical) in BCRP-expressing MDCKII cells; assay type: functional, cell-based; settings: dog, mdck-ii

Structure (SMILES) | Activity [1] | Activity [2]
C(=N\NC1=NCCN1)/c1c2ccccc2c(/C=N/NC2=NCCN2)c2ccccc12 [BISANTRENE] | substrate [] | –
COc1cccc2c1C(=O)c1c(O)c3c(c(O)c1C2=O)C[C@@](O)(C(=O)CO)C[C@@H]3O[C@H]1C[C@H](N)[C@H](O)[C@H](C)O1 [DOXORUBICIN] | substrate [] | –
COc1cc([C@@H]2c3cc4c(cc3[C@@H](O[C@@H]3O[C@@H]5CO[C@@H](C)O[C@H]5[C@H](O)[C@H]3O)[C@H]3COC(=O)[C@H]23)OCO4)cc(OC)c1O [ETOPOSIDE] | substrate [] | substrate []
O=C1c2c(O)ccc(O)c2C(=O)c2c(NCCNCCO)ccc(NCCNCCO)c21 [MITOXANTRONE] | substrate [] | –
COc1cc([C@@H]2c3cc4c(cc3[C@@H](O[C@@H]3O[C@@H]5CO[C@@H](c6cccs6)O[C@H]5[C@H](O)[C@H]3O)[C@H]3COC(=O)[C@H]23)OCO4)cc(OC)c1O [TENIPOSIDE] | substrate [] | –
CC[C@@]1(O)C(=O)OCc2c1cc1n(c2=O)Cc2cc3c(CN(C)C)c(O)ccc3nc2-1 [TOPOTECAN] | substrate [] | –
CC[C@]1(O)C[C@H]2CN(CCc3c([nH]c4ccccc34)[C@@](C(=O)OC)(c3cc4c(cc3OC)N(C=O)[C@H]3[C@@](O)(C(=O)OC)[C@H](OC(C)=O)[C@]5(CC)C=CCN6CC[C@]43[C@@H]65)C2)C1 [VINCRISTINE] | substrate [] | –

From ChEMBL document CHEMBL2074346, “Mouse breast cancer resistance protein (Bcrp1/Abcg2) mediates etoposide resistance and transport, but etoposide oral availability is limited primarily by P-glycoprotein” (Cancer Res, 2003)
